Source: US4971990A, “Phenoxyethylamine derivatives, for preparing the same and composition for exhibiting excellent α1 -blocking activity containing the same” (Hokuriku Pharmaceutical Co., Ltd., priority 1988, dated 1990)
Where a name gives a salt, the structure may show the parent alone. Read-outs that look alike come from different tables or passages of the source.

Experiments:
[1] = tested on: α1-adrenoceptor; experiment: α1-adrenoceptor blocking action (noradrenaline concentration-response in isolated thoracic aorta); assay type: cell-based, rabbit (Japanese white, male); conditions: for pA2 value: negative logarithm of KB (M), noradrenaline as agonist, rabbit thoracic aorta, 30 min exposure, 10^-6 M propranolol; for α1-adrenoceptor selectivity 10^(pA2-pKi): α1-adrenoceptors (pA2, rabbit aorta) compared to dopamine D2-receptors (pKi, rat striatum)
Procedure: α1 -adrenoceptor blocking action
Method: The thoracic aorta were isolated from male rabbits (Japanese white, about 2.5 kg b.w.) and helically cut. The preparations were suspended in Krebs-Henseleit solution maintained at 37° C. and aerated with a gas mixture of 95%O2 +5%CO2. Responses to drugs were recorded isometrically under a tension of 2 g. After an equilibration period of about 60 min., cumulative concentration-response curves for noradrenaline were constructed. The preparations were exposed to the test compounds for 30 min. before rechallenge with noradrenaline. The dose ratio was obtained from the ratio of an ED50 value (the concentration needs to produce the half maximum response) of noradrenaline in the presence and absence of the test compound. The test compounds dissociation constants (KB) were determined according to the following equation.
KB =[concentration of the test compound (M)/(dose ratio-1)]
The pA2 values were then expressed as the negative logarithm of KB.
This value represents the blocking activity of a test compound to α1 -adrenoceptors. In these experimental periods, 10^-6 M propranolol was treated to block β-adrenoceptors. The results shown in Table 1-a indicate that the α1 -adrenoceptor blocking activites of the test compounds are almost the as same as that of YM-12617.
The selectivity of the test compound to α1 -adrenoceptors compared to dopamine D2 -receptors is determined according to the following equation.
α1 -adrenoceptor selectivity =10^(pA 2^-pK i^)

[2] = biological target: T1, dopamine D2-receptor (Rattus norvegicus, UniProt P61169); experiment: Dopamine D2-receptor radioligand-binding assay (3H-spiperone, brain striatum membranes); parameters: species or system rat (male Wistar)
T1 construct: The homogenates were centrifuged and synaptic membrane fractions were obtained; from tissue; host or cells: brain striatum, synaptic membrane fraction, male Wistar rat
T1 sequence (P61169 whole entry): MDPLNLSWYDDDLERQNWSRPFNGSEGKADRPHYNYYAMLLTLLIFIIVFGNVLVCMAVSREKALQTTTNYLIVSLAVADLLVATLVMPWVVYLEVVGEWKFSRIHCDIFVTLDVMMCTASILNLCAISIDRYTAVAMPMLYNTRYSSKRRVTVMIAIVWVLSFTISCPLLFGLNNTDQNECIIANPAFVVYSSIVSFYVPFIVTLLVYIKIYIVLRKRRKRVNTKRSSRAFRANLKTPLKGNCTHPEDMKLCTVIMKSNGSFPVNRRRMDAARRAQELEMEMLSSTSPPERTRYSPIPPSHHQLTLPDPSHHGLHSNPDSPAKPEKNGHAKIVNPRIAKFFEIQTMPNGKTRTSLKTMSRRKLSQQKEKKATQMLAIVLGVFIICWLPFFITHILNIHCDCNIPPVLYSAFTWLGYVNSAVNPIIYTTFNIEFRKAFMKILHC
Procedure: Dopamine D2 -receptor radioligand-binding assay
Method: These experiments were done according to the method of Coward, D et al. (Naunyn-Schmiedeberg's Archives of Pharmacology (1987)335, 115-122). Briefly, brain striatum were isolated from male Wistar rats (about 200 g b.w.). The tissues were homogenaized in ice-cold 50 mM Tris buffer (pH7.4) with a polytron and centrifuged at 50,000 g for 15 min.. The pellets were homogenaized in the same Tris buffer and incubated for 5 min. at 37° C. The homogenates were centrifuged and synaptic membrane fractions were obtained. The membrane fractions were incubated with ^3 H-spiperone and various concentrations of the test compounds for 50 min. at 25° C. The reaction was terminated by filtration on a GF/B glass filter under vacuum. The radioactivity on the filter was measured using a liquid scintillation counter. The test compounds' dissociation constants (Ki) were determined according to the following equation.
IC50 : the test compound concentration needed to inhibit 50% of ^3 H-spiperone binding calculated by pseudo-Hill plot.
L : ^3 H-spiperone concentration
Kd : ^3 H-spiperone dissociation constant calculated by Scatchard plot.
The pKi values was then expressed as the negative logarithum of Ki. This value represents an affinity of the test compound to dopamine D2 -receptors. Non-specific binding of ^3 H-spiperone was determined in the presence of 10^-5 M sulpiride. Protein concentration was determined by the method of Lowry.

[3] = 3H-spiperone, rat striatum synaptic membranes, 50 min at 25° C., non-specific binding with 10^-5 M sulpiride, read-out: pKi value (converted)

SMILES: CCOc1ccccc1OCCNC(C)Cc1ccc(OC)c(S(N)(=O)=O)c1 (racemic) [YM-12617, 5-[2-[[2-(2-ethoxyphenoxy)ethyl]amino]propyl]-2-methoxybenzene-sulfonamidehydrochloride, reference compound]
- pA2 value [1]: 9.38
- α1-adrenoceptor selectivity 10^(pA2-pKi) [1]: 50
- Ki [2, 3]: 20.9 nM

SMILES: COc1ccc(F)cc1OCCNC(C)Cc1ccc(OC)c(S(N)(=O)=O)c1 (stereo not drawn) [Example 1, 5-[2-[2-(5-Fluoro-2-methoxyphenoxy)ehtylamino]propyl]-2-methoxybenzenesulfonamide hydrochloride]
- pA2 value [1]: 9.45
- α1-adrenoceptor selectivity 10^(pA2-pKi) [1]: 339
- Ki [2, 3]: 120 nM

SMILES: CCOc1ccc(CC(C)NCCOc2cc(F)ccc2OC)cc1S(N)(=O)=O (stereo not drawn) [Example 2, 2-Ethoxy-5-[2-[2-(5-fluoro-2-methoxyphenoxy)ethylamino]propyl] benzenesulfonamide hydrochloride]
- pA2 value [1]: 9.05
- α1-adrenoceptor selectivity 10^(pA2-pKi) [1]: 186
- Ki [2, 3]: 166 nM

SMILES: CCOc1ccc(F)cc1OCCNC(C)Cc1ccc(OCC)c(S(N)(=O)=O)c1 (stereo not drawn) [Example 5, 2-Ethoxy-5-[2-[2-(2-ethoxy-5-fluorophenoxy)ethylamino]propyl] benzenesulfonamide hydrochloride]
- pA2 value [1]: 8.98
- α1-adrenoceptor selectivity 10^(pA2-pKi) [1]: 79
- Ki [2]: 83.2 nM

SMILES: CNS(=O)(=O)c1cc(CC(C)NCCOc2cc(F)ccc2OC)ccc1OC.O=C(O)C(=O)O (stereo not drawn) [Example 9, 5-[2-[2-(5-Fluoro-2-methoxyphenoxy)ethylamino]propyl]-2-methoxy-N-methylbenzenesulfonamide oxalate]
- pA2 value [1]: 9.34
- Ki [2]: 93.3 nM

SMILES: COc1ccc(F)cc1OCCNC(C)Cc1ccc(OC)c(S(=O)(=O)N(C)C)c1 (stereo not drawn) [Example 10, 5-[2-[2-(5-Fluoro-2-methoxyphenoxy)ethylamino]propy]-2-methoxy-N,N-dimethylbenzenesulfonamide oxalate]
- pA2 value [1]: 9.42
- α1-adrenoceptor selectivity 10^(pA2-pKi) [1]: 288
- Ki [2, 3]: 110 nM

SMILES: COc1ccc(F)cc1OCCNC(C)Cc1ccc(OC)c(S(=O)(=O)N2CCCC2)c1.O=C(O)C(=O)O (stereo not drawn) [Example 11, 1-[[5-[2-[2-(5-Fluoro-2-methoxyphenoxy)ethylamino]propyl]-2methoxyphenyl]sulfonyl]pyrrolidine oxalate]
- pA2 value [1]: 9.33
- Ki [2]: 64.6 nM

SMILES: COc1ccc(F)cc1OCCNC(C)Cc1ccc(OC)c(S(=O)(=O)N2CCCCC2)c1 (stereo not drawn) [Example 12, 1-[[5-[2-[2-(5-Fluoro-2-methoxyphenoxy)ethylamino]propyl]-2-methoxyphenyl]sulfonyl]-methoxyphenyl]sulfonyl]piperidine oxalate]
- pA2 value [1]: 9.10
- Ki [2]: 89.1 nM

SMILES: CCOc1ccc(F)cc1OCCNC(C)Cc1ccc(OC)c(S(N)(=O)=O)c1.Cl (stereo not drawn) [Example 14, 5-[2-[2-(2-Ethoxy-5-fluorophenoxy)ethylamino]propyl]-2-methoxybenzenesulfonamide hydrochloride]
- pA2 value [1]: 9.69
- α1-adrenoceptor selectivity 10^(pA2-pKi) [1]: 115
- Ki [2]: 23.4 nM

SMILES: CCOc1ccc(F)cc1OCCNC(C)Cc1ccc(OC)c(S(=O)(=O)N(C)C)c1.O=C(O)C(=O)O (stereo not drawn) [Example 15, 5-[2-[2-(2-Ethoxy-5-fluorophenoxy)ethylamino]propyl]-2-methoxy-N,N-dimethylbenzenesulfonamide oxalate]
- pA2 value [1]: 9.48
- α1-adrenoceptor selectivity 10^(pA2-pKi) [1]: 78
- Ki [2]: 25.7 nM

SMILES: CCCNS(=O)(=O)c1cc(CC(C)NCCOc2cc(F)ccc2OC)ccc1OC (stereo not drawn) [Example 20, 5-[2[2-(5-Fluoro-2-methoxyphenoxy)ethylamino]propyl]-2-methoxy-N-propylbenzenesulfonamide 1/2fumarate]
- pA2 value [1]: 9.10
- Ki [2, 3]: 129 nM

SMILES: CCNS(=O)(=O)c1cc(CC(C)NCCOc2cc(F)ccc2OC)ccc1OC (stereo not drawn) [Example 21, N-Ethyl-5-[2-(5-fluoro-2-methoxyphenoxy)ethylamino]propyl]-2-methoxy-benzenesulfonamide oxalate]
- pA2 value [1]: 9.14
- Ki [2]: 93.3 nM

SMILES: CCCCNS(=O)(=O)c1cc(CC(C)NCCOc2cc(F)ccc2OC)ccc1OC.O=C(O)C(=O)O (stereo not drawn) [Example 22, N-Butyl-5-[2-[2-(5-fluoro-2-methoxyphenoxy)ethylamino]propyl]-2-methoxybenzenesulfonamide oxalate]
- pA2 value [1]: 9.08
- Ki [2]: 77.6 nM

SMILES: COc1ccc(F)cc1OCCN[C@H](C)Cc1ccc(OC)c(S(N)(=O)=O)c1.Cl [Example 34, R-(-)-5-[2-[2-(5-Fluoro-2-methoxyphenoxy)-ethylamino]propyl]-2-methoxybenzenesulfonamide hydrochloride]
- pA2 value [1]: 9.77
- α1-adrenoceptor selectivity 10^(pA2-pKi) [1]: 437
- Ki [2]: 74.1 nM
